Data as given in US20260083851A1 (AVILAR THERAPEUTICS, INC., priority 2022, published 2026).
Like-named read-outs stand apart in the source and are kept apart here.

How the values were obtained:
[1] = tested on: HepG2 cells; experiment: Cellular uptake assay (high-content imaging); type: cell-based, human; conditions: 100 nM AF488-labeled antibody, 6 hours at 37° C.
Description: The cellular uptake assay is designed to measure compound-mediated cellular uptake of fluorescently labeled antibody following ternary complex formation with the ASGPR receptor and endocytosis of the entire complex into cells. The optimal concentration of compound will result in the maximum number of cells with intracellular antibody and is represented as the peak ratio of antibody-positive cells over the total number of cells. As with the ternary complex formation assay, too much or too little compound will result in suboptimal complex formation and fewer cells will have measurable intracellular fluorescence.
Human IgG (Sigma-Aldrich, 14506) was covalently labeled with Alexa Fluor 488 using the Alexa Fluor™ 488 Protein Labeling Kit (Thermo Fisher, A10235) following the manufacturer's instructions. HepG2 cells were plated in DMEM supplemented with 10% FBS at 5,000 cells per well in a 96-well microtiter plate and incubated for approximately 18 hours at 37° C./5% CO2. For studies using human IgG, 100 nM AF488-labeled human IgG antibodies and serial dilutions of IgG-based degrader (0.1% DMSO final concentration) were added to the cells and the mixture was incubated at 37° C. for 6 hours. For studies using DNP, 100 nM AF488-labeled DNP antibodies and serial dilutions of DNP-based degrader (0.1% DMSO final concentration) were added to the cells and the mixture was incubated at 37° C. for 6 hours. HepG2 cells were fixed in 100% methanol at −20° C. for 20 min, washed 3× with PBS, then stained with DAPI (Thermo, Cat #H3570). HepG2 cells were imaged for DAPI and Alexa Fluor 488 using the Operetta CLS, high-content analysis system (PerkinElmer). Data is presented as the ratio of the number of cells positive for hIgG or DNP (AF-488 fluorescence) over the total cell number (measured by DAPI).

[2] = target: T1, ASGPR receptor on HepG2 cells (ternary complex with AF488-labeled antibody) (Homo sapiens, UniProt P07306); experiment: Ternary complex formation assay (flow cytometry, cell-associated AF488 fluorescence); type: cell-based; conditions: 100 nM AF488-labeled antibody, 1 hour at 4° C.
T1 construct: host or cells: HepG2
T1 sequence (P07306 1-291): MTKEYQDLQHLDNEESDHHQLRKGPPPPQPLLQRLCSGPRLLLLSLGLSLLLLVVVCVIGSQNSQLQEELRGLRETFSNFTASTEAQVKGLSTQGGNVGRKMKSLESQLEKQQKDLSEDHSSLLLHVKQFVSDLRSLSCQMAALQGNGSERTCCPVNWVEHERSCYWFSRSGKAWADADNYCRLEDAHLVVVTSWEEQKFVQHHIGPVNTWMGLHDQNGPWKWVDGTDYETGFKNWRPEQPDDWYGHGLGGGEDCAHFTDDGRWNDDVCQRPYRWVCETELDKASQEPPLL
T1 sequence (P07307 1-311 partner): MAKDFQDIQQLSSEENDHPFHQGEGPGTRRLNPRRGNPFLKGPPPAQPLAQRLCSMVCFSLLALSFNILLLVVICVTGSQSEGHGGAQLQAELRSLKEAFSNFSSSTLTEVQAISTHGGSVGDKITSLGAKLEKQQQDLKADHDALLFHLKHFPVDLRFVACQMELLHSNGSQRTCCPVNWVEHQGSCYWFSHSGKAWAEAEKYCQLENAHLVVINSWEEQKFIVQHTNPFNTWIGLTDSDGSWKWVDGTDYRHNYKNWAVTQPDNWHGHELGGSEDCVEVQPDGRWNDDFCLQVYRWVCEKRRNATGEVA

[3] = target: T2, ASGPR (Homo sapiens, UniProt P07306); experiment: ASGPR SPR binding
T2 construct: biotin (biotinylated)
T2 sequence (P07306 1-291): T1 sequence (P07306 1-291)

[4] = target: IgG; experiment: IgG SPR binding
[5] = Homo sapiens, Table 3, class symbols, read-out: Uptake Assay (EC50)
[6] = Table 3, class symbols, read-out: Ternary Complex EC50
[7] = Table 3, read-out: ASGPR SPR Binding KD
[8] = Table 3, read-out: IgG SPR Binding KD
[9] = the 25th table, class symbols, read-out: Uptake EC50
[10] = the 25th table, class symbols, read-out: TCF EC50
[11] = second table, read-out: ASGPR KD

| EC50 [1, 5] | EC50 [2, 6] | Kd [3, 7] | Kd [4, 8] | EC50 ([1]; Homo sapiens, Table 3, numeric bounds, read-out: Uptake Assay (EC50)) | Structure (SMILES) | EC50 [1, 9] | EC50 [2, 10] | Kd [3, 11] | Kd ([4]; second table, read-out: IgG KD) | EC50 ([1]; Homo sapiens, the 25th table, class symbols, read-out: Uptake EC50) |
| --- | --- | --- | --- | --- | --- | --- | --- | --- | --- | --- |
| < 100 nM | < 100 nM | 500 to 1000 nM |  |  | CC(C)C[C@@H]1NC(=O)[C@H](Cc2cnc[nH]2)NC(=O)[C@H](Cc2c[nH]c3ccccc23)NC(=O)[C@H](C)NC(=O)[C@@H]2CSSC[C@H](NC(=O)[C@H](Cc3c[nH]c4ccccc34)NC(=O)[C@H](C(C)C)NC(=O)[C@H](CC(C)C)NC(=O)[C@H](CCC(=O)O)NC(=O)CNC1=O)C(=O)N[C@@H]([C@@H](C)O)C(=O)N1CCC[C@@H]1C(=O)N1C[C@@H](NC(=O)COCCOCC(=O)NC[C@H]3OC[C@H](Nc4cccc(C(F)(F)F)n4)[C@@H](O)[C@H]3O)C[C@H]1C(=O)N[C@@H](CC(=O)O)C(=O)N2 [compound 25] |  |  |  |  |  |
| < 100 nM | < 100 nM | < 100 nM | < 100 nM |  | CC(C)C[C@@H]1NC(=O)[C@H](Cc2cnc[nH]2)NC(=O)[C@H](Cc2c[nH]c3ccccc23)NC(=O)[C@H](C)NC(=O)[C@@H]2CSSC[C@H](NC(=O)[C@H](Cc3c[nH]c4ccccc34)NC(=O)[C@H](C(C)C)NC(=O)[C@H](CC(C)C)NC(=O)[C@H](CCC(=O)O)NC(=O)CNC1=O)C(=O)N[C@@H]([C@@H](C)O)C(=O)N1CCC[C@@H]1C(=O)N1C[C@@H](NC(=O)c3ccc(N4CCC(CN5CCN(C[C@H]6OC[C@H](Nc7cccc(C(F)(F)F)n7)[C@@H](O)[C@H]6O)CC5)CC4)cc3)C[C@H]1C(=O)N[C@@H](CC(=O)O)C(=O)N2 [compound 26] |  |  |  |  |  |
| < 100 nM | < 100 nM | < 100 nM | < 100 nM |  | CC(C)C[C@@H]1NC(=O)[C@H](Cc2cnc[nH]2)NC(=O)[C@H](Cc2c[nH]c3ccccc23)NC(=O)[C@H](C)NC(=O)[C@@H]2CSSC[C@H](NC(=O)[C@H](Cc3c[nH]c4ccccc34)NC(=O)[C@H](C(C)C)NC(=O)[C@H](CC(C)C)NC(=O)[C@H](CCC(=O)O)NC(=O)CNC1=O)C(=O)N[C@@H]([C@@H](C)O)C(=O)N1CCC[C@@H]1C(=O)N1C[C@@H](NC(=O)c3ccc(N4CCC(CN5CCN(C[C@H]6OC[C@H](Nc7nc(C(F)(F)F)ccc7F)[C@@H](O)[C@H]6O)CC5)CC4)cc3)C[C@H]1C(=O)N[C@@H](CC(=O)O)C(=O)N2 [compound 27] |  |  |  |  |  |
|  | < 100 nM | < 100 nM | < 100 nM | > 1100 nM | CC(C)C[C@@H]1NC(=O)[C@H](Cc2cnc[nH]2)NC(=O)[C@H](Cc2c[nH]c3ccccc23)NC(=O)[C@H](C)NC(=O)[C@@H]2CSSC[C@H](NC(=O)[C@H](Cc3c[nH]c4ccccc34)NC(=O)[C@H](C(C)C)NC(=O)[C@H](CC(C)C)NC(=O)[C@H](CCC(=O)O)NC(=O)CNC1=O)C(=O)N[C@@H]([C@@H](C)O)C(=O)N1CCC[C@@H]1C(=O)N1C[C@H](NC(=O)COCCOCC(=O)NC[C@H]3OC[C@H](Nc4cccc(C(F)(F)F)n4)[C@@H](O)[C@H]3O)C[C@H]1C(=O)N[C@@H](CC(=O)O)C(=O)N2 [compound 28] |  |  |  |  |  |
| 100 to 500 nM | < 100 nM | < 100 nM | < 100 nM |  | CC(C)C[C@@H]1NC(=O)[C@H](Cc2cnc[nH]2)NC(=O)[C@H](Cc2c[nH]c3ccccc23)NC(=O)[C@H](C)NC(=O)[C@@H]2CSSC[C@H](NC(=O)[C@H](Cc3c[nH]c4ccccc34)NC(=O)[C@H](C(C)C)NC(=O)[C@H](CC(C)C)NC(=O)[C@H](CCC(=O)O)NC(=O)CNC1=O)C(=O)N[C@@H]([C@@H](C)O)C(=O)N1CCC[C@@H]1C(=O)N1C[C@H](NC(=O)c3ccc(N4CCC(CN5CCN(C[C@H]6OC[C@H](Nc7cccc(C(F)(F)F)n7)[C@@H](O)[C@H]6O)CC5)CC4)cc3)C[C@H]1C(=O)N[C@@H](CC(=O)O)C(=O)N2 [compound 29] |  |  |  |  |  |
| 100 to 500 nM | 100 to 500 nM | < 100 nM | < 100 nM |  | CC(C)C[C@@H]1NC(=O)[C@H](Cc2cnc[nH]2)NC(=O)[C@H](Cc2c[nH]c3ccccc23)NC(=O)[C@H](C)NC(=O)[C@@H]2CSSC[C@H](NC(=O)[C@H](Cc3c[nH]c4ccccc34)NC(=O)[C@H](C(C)C)NC(=O)[C@H](CC(C)C)NC(=O)[C@H](CCC(=O)O)NC(=O)CNC1=O)C(=O)N[C@@H]([C@@H](C)O)C(=O)N1CCC[C@@H]1C(=O)N1C[C@H](NC(=O)c3ccc(N4CCC(CN5CCN(C[C@H]6OC[C@H](Nc7nc(C(F)(F)F)ccc7F)[C@@H](O)[C@H]6O)CC5)CC4)cc3)C[C@H]1C(=O)N[C@@H](CC(=O)O)C(=O)N2 [compound 30] |  |  |  |  |  |
| < 100 nM | < 100 nM | < 100 nM | < 100 nM |  | CC(C)C[C@@H]1NC(=O)[C@H](Cc2cnc[nH]2)NC(=O)[C@H](Cc2c[nH]c3ccccc23)NC(=O)[C@H](C)NC(=O)[C@@H]2CSSC[C@H](NC(=O)[C@H](Cc3c[nH]c4ccccc34)NC(=O)[C@H](C(C)C)NC(=O)[C@H](CC(C)C)NC(=O)[C@H](CCC(=O)O)NC(=O)CNC1=O)C(=O)N[C@@H]([C@@H](C)O)C(=O)N1CCC[C@@H]1C(=O)N1C[C@@H](NC(=O)c3ccc(N4CCC(CN5CCN(C[C@H]6OC[C@H](Nc7ccnc(C(F)(F)F)n7)[C@@H](O)[C@H]6O)CC5)CC4)cc3)C[C@H]1C(=O)N[C@@H](CC(=O)O)C(=O)N2 [compound 31] |  |  |  |  |  |
|  |  |  |  |  | CC(C)C[C@@H]1NC(=O)[C@H](Cc2cnc[nH]2)NC(=O)[C@H](Cc2c[nH]c3ccccc23)NC(=O)[C@H](C)NC(=O)[C@@H](NC(=O)[C@H](CC(=O)O)NC(=O)CCOCCCCOCCCCOCCCCOCCNC(=O)CCCc2cn(CCCCCC(=O)NC(COCCC(=O)NCCOCCOCCOCCOC[C@H]3OC[C@H](Nc4nccc(C(F)(F)F)n4)C[C@H]3O)COCCC(=O)NCCOCCOCCOCCOC[C@H]3OC[C@H](Nc4nccc(C(F)(F)F)n4)C[C@H]3O)nn2)CSSC[C@@H](C(=O)N[C@H](C(N)=O)[C@@H](C)O)NC(=O)[C@H](Cc2c[nH]c3ccccc23)NC(=O)[C@H](C(C)C)NC(=O)[C@H](CC(C)C)NC(=O)[C@H](CCC(=O)O)NC(=O)CNC1=O [compound 92] | > 1000 nM | > 1000 nM | > 1000 nM |  |  |
|  |  |  |  |  | CC(C)C[C@@H]1NC(=O)[C@H](Cc2cnc[nH]2)NC(=O)[C@H](Cc2c[nH]c3ccccc23)NC(=O)[C@H](C)NC(=O)[C@@H](NC(=O)[C@H](CC(=O)O)NC(=O)CCOCCOCCOCCOCCNC(=O)CCCc2cn(CCCCCC(=O)NC(COCCC(=O)NCCOCCOCCOCCOC[C@H]3CO[C@H](Nc4cncc(C(F)(F)F)n4)[C@@H](O)[C@H]3O)(COCCC(=O)NCCOCCOCCOCCOC[C@H]3OC[C@H](Nc4nccc(C(F)(F)F)n4)[C@@H](O)[C@H]3O)COCCC(=O)NCCOCCOCCOCCOC[C@H]3OC[C@H](Nc4nccc(C(F)(F)F)n4)[C@@H](O)[C@H]3O)nn2)CSSC[C@@H](C(=O)N[C@H](C(N)=O)[C@@H](C)O)NC(=O)[C@H](Cc2c[nH]c3ccccc23)NC(=O)[C@H](C(C)C)NC(=O)[C@H](CC(C)C)NC(=O)[C@H](CCC(=O)O)NC(=O)CNC1=O [compound 94] | < 100 nM | < 100 nM | < 100 nM |  |  |
|  |  |  |  |  | CC(C)C[C@@H]1NC(=O)[C@H](Cc2cnc[nH]2)NC(=O)[C@H](Cc2c[nH]c3ccccc23)NC(=O)[C@H](C)NC(=O)[C@@H]2CSSC[C@H](NC(=O)[C@H](Cc3c[nH]c4ccccc34)NC(=O)[C@H](C(C)C)NC(=O)[C@H](CC(C)C)NC(=O)[C@H](CCC(=O)O)NC(=O)CNC1=O)C(=O)N[C@@H]([C@@H](C)O)C(=O)N1CCC[C@@H]1C(=O)N1C[C@H](NC(=O)COCCOCC(=O)NC[C@H]3OC[C@H](Nc4cncc(C(F)(F)F)n4)[C@@H](O)[C@H]3O)C[C@H]1C(=O)N[C@@H](CC(=O)O)C(=O)N2 [compound 96] |  |  | < 100 nM | < 100 nM | < 100 nM |
